PubChem BioAssay AID292 (DTP/NCI, 2004)
Several values for one entry are separate records, joined by “and”; a condition that tells them apart may be missing. Equal values may be shown once. Inconclusive results and toxic doses are left out.

Test system: B6C3F1 mice, ip Sarcoma M5076, median survival T/C
Assay: NCI In Vivo Anticancer Drug Screen. Data for tumor model Sarcoma M5076 (intraperitoneal) in B6C3F1 mice
Settings: endpoint: median survival time, schedule: Q04DX004 (ip), higher = longer survival
Method in brief: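 Antitumour effect is judged in tumour-bearing mice by comparing survival after compound dosing against vehicle-only animals, reported as T/C.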

[1] = dose: 50.0 mg/kg/injection, vehicle: saline with Tween-80
[2] = dose: 100.0 mg/kg/injection, vehicle: saline with Tween-80
[3] = dose: 200.0 mg/kg/injection, vehicle: saline with Tween-80
[4] = dose: 400.0 mg/kg/injection, vehicle: saline with Tween-80
[5] = dose: 50.0 mg/kg/injection, vehicle: Klucel (hydroxypropylcellulose) (HPC)
[6] = dose: 100.0 mg/kg/injection, vehicle: Klucel (hydroxypropylcellulose) (HPC)
[7] = dose: 25.0 mg/kg/injection, vehicle: saline with Tween-80

With `C=C1C(O)C2(O)OCC34C(CC5C(C)=CC(=O)C(O)C5(C)C23)OC(=O)C(OC(=O)C/C=C(\C)CCCCC)C14` (stereo not given) the T/C (dose: 1.0 mg/kg/injection, vehicle: saline + alcohol) was 105 % of control and 107 % of control, the T/C (dose: 2.0 mg/kg/injection, vehicle: saline + alcohol) was 104 % of control and 122 % of control and the T/C (dose: 4.0 mg/kg/injection, vehicle: saline + alcohol) was 102 % of control and 108 % of control.

`CCOc1ccc(C(C)c2cc3c(cc2OC)OCO3)cc1` (stereo not given) was tested, and the T/C (dose: 62.5 mg/kg/injection, vehicle: distilled water + Tween-80) was 99 % of control and 102 % of control, the T/C (dose: 125.0 mg/kg/injection, vehicle: distilled water + Tween-80) was 102 % of control and 124 % of control and the T/C (dose: 250.0 mg/kg/injection, vehicle: distilled water + Tween-80) was 117 % of control.

`CCc1c(C)c(SC)n(C)c(=O)c1C#N` was tested, and the T/C [1] was 111 % of control, the T/C [2] was 111 % of control and the T/C [3] was 111 % of control. The T/C [4] was 96 % of control.

For `ClCCCN1CCN(CCCl)CC1`, the T/C (dose: 0.63 mg/kg/injection, vehicle: saline with Tween-80) was 99 % of control, the T/C (dose: 1.25 mg/kg/injection, vehicle: saline with Tween-80) was 118 % of control and the T/C (dose: 10.0 mg/kg/injection, vehicle: saline with Tween-80) was 175 % of control. The T/C (dose: 20.0 mg/kg/injection, vehicle: saline with Tween-80) was 94 % of control.

For `CC(=O)C1C(=O)C(=O)N(c2ccc(C)cc2C)C1=O` (stereo not given), the T/C [5] was 102 % of control and the T/C [6] was 98 % of control.

For `CO[C@@H]1C2=CC=CC=C[C@H]2n2c(=O)n(C)c(=O)n21`, the T/C (dose: 37.5 mg/kg/injection, vehicle: other) was 104 % of control, the T/C (dose: 75.0 mg/kg/injection, vehicle: other) was 100 % of control and the T/C (dose: 150.0 mg/kg/injection, vehicle: other) was 100 % of control. For the same compound, the T/C (dose: 300.0 mg/kg/injection, vehicle: other) was 104 % of control.

For `NC(=O)C1=CC2C3C=CC2(O)C(=O)OC3O1` (stereo not given), the T/C (dose: 7.5 mg/kg/injection, vehicle: Klucel (hydroxypropylcellulose) (HPC)) was 98 % of control, the T/C (dose: 15.0 mg/kg/injection, vehicle: Klucel (hydroxypropylcellulose) (HPC)) was 95 % of control and the T/C (dose: 30.0 mg/kg/injection, vehicle: Klucel (hydroxypropylcellulose) (HPC)) was 101 % of control. For the same compound, the T/C (dose: 60.0 mg/kg/injection, vehicle: Klucel (hydroxypropylcellulose) (HPC)) was 106 % of control.

In the case of `O=C(Nc1cccc(C(F)(F)F)c1)C(Cl)=C(Cl)Cl`, the T/C (dose: 37.5 mg/kg/injection, vehicle: Klucel (hydroxypropylcellulose) (HPC)) is reported as 95 % of control, the T/C (dose: 75.0 mg/kg/injection, vehicle: Klucel (hydroxypropylcellulose) (HPC)) is reported as 103 % of control and the T/C (dose: 150.0 mg/kg/injection, vehicle: Klucel (hydroxypropylcellulose) (HPC)) is reported as 102 % of control. For the same compound, the T/C (dose: 300.0 mg/kg/injection, vehicle: Klucel (hydroxypropylcellulose) (HPC)) was 102 % of control and the T/C (dose: 600.0 mg/kg/injection, vehicle: Klucel (hydroxypropylcellulose) (HPC)) was 87 % of control.

In the case of `O=CC(O)C(O)C(O)C(O)CO` (stereo not given), the T/C (dose: 75.0 mg/kg/injection, vehicle: saline) is reported as 93 % of control, the T/C (dose: 150.0 mg/kg/injection, vehicle: saline) is reported as 96 % of control and the T/C (dose: 300.0 mg/kg/injection, vehicle: saline) is reported as 96 % of control. The T/C (dose: 600.0 mg/kg/injection, vehicle: saline) was 98 % of control and the T/C (dose: 1200.0 mg/kg/injection, vehicle: saline) was 93 % of control.

`NNC(=O)c1ccc(OCc2nc3ccccc3[nH]2)cc1` was tested, and the T/C [7] was 99 % of control, the T/C [1] was 102 % of control and the T/C [2] was 101 % of control. For the same compound, the T/C [3] was 106 % of control and the T/C [4] was 97 % of control.

For `COCCCn1c(C(Cl)(Cl)Cl)nn2c(=O)c3ccccc3nc2c1=O`, the T/C [1] was 103 % of control, the T/C [2] was 99 % of control and the T/C [3] was 94 % of control. For the same compound, the T/C [4] was 90 % of control.

`CC(=O)NC(CSC1=C2NC(=O)\C=C/C=C/C=C\C(C)C(O)CC(=O)/C(C)=C\CC(O)/C=C/C(C)C(O)C(C)C=C(C)C(=O)c3c(O)c(C)cc(c3C1=O)C2=O)C(=O)O` (stereo not given) was tested, and the T/C (dose: 1.25 mg/kg/injection, vehicle: Klucel (hydroxypropylcellulose) (HPC)) was 100 % of control, the T/C (dose: 2.5 mg/kg/injection, vehicle: Klucel (hydroxypropylcellulose) (HPC)) was 100 % of control and the T/C (dose: 5.0 mg/kg/injection, vehicle: Klucel (hydroxypropylcellulose) (HPC)) was 101 % of control. The T/C (dose: 10.0 mg/kg/injection, vehicle: Klucel (hydroxypropylcellulose) (HPC)) was 93 % of control and the T/C (dose: 20.0 mg/kg/injection, vehicle: Klucel (hydroxypropylcellulose) (HPC)) was 100 % of control.

With `COC1CCCCC1C(N)C(=O)O` (stereo not given) (tested in a mixture with another compound) the T/C [7] was 100 % of control, the T/C [1] was 91 % of control and the T/C [2] was 95 % of control. The T/C [3] was 95 % of control and the T/C [4] was 93 % of control.

`[CH3][Sn]([CH3])([Cl])[c]1cc[c]([Sn]([CH3])([CH3])[Cl])cc1` was tested, and the T/C (dose: 0.25 mg/kg/injection, vehicle: saline) was 108 % of control, the T/C (dose: 0.5 mg/kg/injection, vehicle: saline) was 105 % of control and the T/C (dose: 1.0 mg/kg/injection, vehicle: saline) was 87 % of control. The T/C (dose: 2.0 mg/kg/injection, vehicle: saline) was 91 % of control.

In the case of `Nc1nc([Se]c2nc(N)nc3c2ncn3C2OC(CO)C(O)C2O)c2ncn(C3OC(CO)C(O)C3O)c2n1` (stereo not given), the T/C (dose: 25.0 mg/kg/injection, vehicle: distilled water + Tween-80) is reported as 123 % of control, the T/C (dose: 100.0 mg/kg/injection, vehicle: distilled water + Tween-80) is reported as 159 % of control and the T/C (dose: 200.0 mg/kg/injection, vehicle: distilled water + Tween-80) is reported as 157 % of control and 177 % of control.

In the case of `CN1C2CCC1C(Br)C(=O)C2` (stereo not given), the T/C (dose: 50.0 mg/kg/injection, vehicle: saline) is reported as 101 % of control, the T/C (dose: 100.0 mg/kg/injection, vehicle: saline) is reported as 104 % of control and the T/C (dose: 200.0 mg/kg/injection, vehicle: saline) is reported as 103 % of control.

In the case of `CCc1ccccc1N1CCN(C(=O)c2cc(OC)c(OC)c(OC)c2)CC1`, the T/C (dose: 25.0 mg/kg/injection, vehicle: Klucel (hydroxypropylcellulose) (HPC)) is reported as 111 % of control, the T/C [5] is reported as 112 % of control and the T/C [6] is reported as 122 % of control.

With `CCN(CC)CCn1[nH]c2c3ccc(=O)cc3sc3c(NCCN)ccc1c32` the T/C (dose: 3.12 mg/kg/injection, vehicle: water) was 194 % of control, the T/C (dose: 6.25 mg/kg/injection, vehicle: water) was 155 % of control and 163 % of control and 200 % of control and the T/C (dose: 12.5 mg/kg/injection, vehicle: water) was 178 % of control and 201 % of control and 239 % of control.

For `COc1cc2c(c3c1c(=O)c1ccccc1n3C)C=C([N+](=O)[O-])C(C)(C)O2`, the T/C (dose: 25.0 mg/kg/injection, vehicle: saline + Tween-80 + alcohol) was 104 % of control and the T/C (dose: 50.0 mg/kg/injection, vehicle: saline + Tween-80 + alcohol) was 90 % of control.

For `Cc1cc(Br)c2nsnc2c1[N+](=O)[O-]`, the T/C [1] was 96 % of control, the T/C [2] was 112 % of control and the T/C [3] was 104 % of control. The T/C [4] was 103 % of control and the T/C (dose: 800.0 mg/kg/injection, vehicle: saline with Tween-80) was 87 % of control.

For `NC(=O)c1cc(Cl)nc2nc(Cl)nc(N)c12`, the T/C [7] was 100 % of control, the T/C [1] was 97 % of control and the T/C [2] was 99 % of control. For the same compound, the T/C [3] was 96 % of control and the T/C [4] was 93 % of control.

For `O=C(N/N=C/c1ccco1)c1ccc(OCc2nc3ccccc3[nH]2)cc1`, the T/C [7] was 97 % of control, the T/C [1] was 95 % of control and the T/C [2] was 96 % of control. The T/C [3] was 90 % of control.

For `Clc1cccc(N(C2=NCCS2)C2=NCCS2)c1`, the T/C [5] was 107 % of control, the T/C [6] was 101 % of control and the T/C (dose: 200.0 mg/kg/injection, vehicle: Klucel (hydroxypropylcellulose) (HPC)) was 101 % of control. For the same compound, the T/C (dose: 400.0 mg/kg/injection, vehicle: Klucel (hydroxypropylcellulose) (HPC)) was 96 % of control and the T/C (dose: 800.0 mg/kg/injection, vehicle: Klucel (hydroxypropylcellulose) (HPC)) was 92 % of control.
